This test has as its target T1, CFTR in F508del/MF-HBE cells (Homo sapiens, UniProt P13569, DEL508-508).
T1 construct: human bronchial epithelial (HBE) cells derived from CF subjects heterozygous for F508del and a minimal function CFTR mutation; endogenous in cells; host or cells: primary human bronchial epithelial cells from CF subjects (F508del/MF-HBE)
Description: Ussing chamber assay of CFTR-mediated short-circuit currents (identification of potentiator compounds). It is filed as cell-based. Conditions: potentiator incubated 18-24 hours at 37° C. in combination with 10 μM corrector, in the presence of 20% human serum, CFTR-mediated ISC. The procedure:
Ussing chamber experiments were performed using human bronchial epithelial (HBE) cells derived from CF subjects heterozygous for F508del and a minimal function CFTR mutation (F508del/MF-HBE) and cultured as previously described (Neuberger T, Burton B, Clark H, Van Goor F; Methods Mol. Biol. 2011:741:39-54). After four days the apical media was removed, and the cells were grown at an air liquid interface for >14 days prior to use.
To isolate the CFTR-mediated short-circuit (ISC) current, F508del/MF-HBE grown on Costar® Snapwell™ cell culture inserts were mounted in an Ussing chamber and the transepithelial ISC was measured under voltage-clamp recording conditions (Vhold=0 mV) at 37° C. The basolateral solution contained (in mM) 145 NaCl, 0.83 K2HPO4, 3.3 KH2PO4, 1.2 MgCl2, 1.2 CaCl2), 10 Glucose, 10 HEPES (pH adjusted to 7.4 with NaOH) and the apical solution contained (in mM) 145 NaGluconate, 1.2 MgCl2, 1.2 CaCl2), 10 glucose, 10 HEPES (pH adjusted to 7.4 with NaOH) and 30 μM amiloride to block the epithelial sodium channel. Forskolin (20 μM) was added to the apical surface to activate CFTR, followed by apical addition of a CFTR inhibitor cocktail consisting of BPO, GlyH-101 and CFTR inhibitor 172 (each at 20 μM final assay concentration) to specifically isolate CFTR currents. The CFTR-mediated ISC (μA/cm^2) for each condition was determined from the peak forskolin response to the steady-state current following inhibition.
The activity of the CFTR potentiator compounds on the CFTR-mediated ISC was determined in Ussing chamber studies as described above. The F508del/MF-HBE cell cultures were incubated with the potentiator compounds at a range of concentrations in combination with 10 μM (14S)-8-[3-(2-{dispiro[2.0.2.1]heptan-7-yl}ethoxy)-1H-pyrazol-1-yl]-12,12-dimethyl-2λ^6-thia-3,9,11,18,23-pentaazatetracyclo[17.3.1.111,14.05,10]tetracosa-1(22),5,7,9,19(23),20-hexaene-2,2,4-trione for 18-24 hours at 37° C. and in the presence of 20% human serum. The concentration of potentiator compounds and (14S)-8-[3-(2-{dispiro[2.0.2.1]heptan-7-yl}ethoxy)-1H-pyrazol-1-yl]-12,12-dimethyl-2λ^6-thia-3,9,11,18,23-pentaazatetracyclo[17.3.1.111,14.05,10]tetracosa-1(22),5,7,9,19(23),20-hexaene-2,2,4-trione used during the 18-24 hours incubations was kept constant throughout the Ussing chamber measurement of the CFTR-mediated ISC to ensure compounds were present throughout the entire experiment. The efficacy and potency of the putative F508del potentiators was compared to that of the known potentiator, ivacaftor (N-[2,4-bis(1,1-dimethylethyl)-5-hydroxyphenyl]-1,4-dihydro-4-oxoquinoline-3-carboxamide).
T1 sequence (P13569 with tags, fused parts or gaps DEL508-508): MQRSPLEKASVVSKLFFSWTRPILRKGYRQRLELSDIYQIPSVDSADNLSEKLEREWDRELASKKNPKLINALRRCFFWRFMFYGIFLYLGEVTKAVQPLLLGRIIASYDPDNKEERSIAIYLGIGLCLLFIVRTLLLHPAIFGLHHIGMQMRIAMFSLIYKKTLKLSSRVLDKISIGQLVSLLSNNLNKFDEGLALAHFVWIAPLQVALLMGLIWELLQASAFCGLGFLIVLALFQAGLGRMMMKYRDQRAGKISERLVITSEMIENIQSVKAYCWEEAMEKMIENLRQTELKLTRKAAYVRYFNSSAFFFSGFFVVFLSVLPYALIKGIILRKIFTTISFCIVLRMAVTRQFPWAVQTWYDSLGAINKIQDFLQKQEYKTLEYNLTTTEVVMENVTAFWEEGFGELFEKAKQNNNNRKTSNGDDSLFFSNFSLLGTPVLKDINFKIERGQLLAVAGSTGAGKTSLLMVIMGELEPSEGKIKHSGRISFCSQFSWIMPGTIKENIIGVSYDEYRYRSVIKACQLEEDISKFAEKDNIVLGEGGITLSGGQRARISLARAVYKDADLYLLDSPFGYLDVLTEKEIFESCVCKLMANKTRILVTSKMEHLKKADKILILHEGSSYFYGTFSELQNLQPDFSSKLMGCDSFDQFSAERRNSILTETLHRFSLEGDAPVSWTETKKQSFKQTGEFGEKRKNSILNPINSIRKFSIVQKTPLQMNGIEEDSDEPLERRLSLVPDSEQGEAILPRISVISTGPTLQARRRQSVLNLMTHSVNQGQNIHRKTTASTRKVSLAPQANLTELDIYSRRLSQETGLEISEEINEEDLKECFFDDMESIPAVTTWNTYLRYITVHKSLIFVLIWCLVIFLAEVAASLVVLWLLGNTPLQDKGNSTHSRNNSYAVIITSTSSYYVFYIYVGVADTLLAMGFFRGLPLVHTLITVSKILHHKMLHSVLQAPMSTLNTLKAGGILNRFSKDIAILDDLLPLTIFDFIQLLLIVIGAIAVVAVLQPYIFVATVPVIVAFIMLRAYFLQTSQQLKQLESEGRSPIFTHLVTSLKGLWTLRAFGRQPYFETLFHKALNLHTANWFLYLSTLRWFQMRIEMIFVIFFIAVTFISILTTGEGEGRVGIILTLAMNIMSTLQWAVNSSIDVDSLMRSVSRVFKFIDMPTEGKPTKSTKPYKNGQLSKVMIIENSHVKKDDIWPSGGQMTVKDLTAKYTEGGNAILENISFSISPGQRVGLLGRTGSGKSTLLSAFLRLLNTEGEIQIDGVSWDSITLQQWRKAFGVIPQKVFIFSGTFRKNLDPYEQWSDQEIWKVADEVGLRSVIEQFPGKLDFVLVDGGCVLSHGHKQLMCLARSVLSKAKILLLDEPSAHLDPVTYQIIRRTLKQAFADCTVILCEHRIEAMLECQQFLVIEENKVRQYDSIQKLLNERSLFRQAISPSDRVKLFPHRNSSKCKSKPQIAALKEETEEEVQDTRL
Consider “17-amino-12-[(3- cyclobutyl-5-fluoro- phenyl)methyl]-6- hydroxy-6,15- bis(trifluoromethyl)- 8,19-dioxa-3,4,12,18- tetrazatricyclo [12.3.1.12,5] nonadeca- 1(18),2,4,14,16- pentaen-13-one [Compound 263]”, for which the EC50 (commonly the concentration that produces a half-maximal response) was less than 500 nM. Regarding “17-amino-12-[(3-tert- butylphenyl)methyl]- 6-hydroxy-6,15- bis(trifluoromethyl)- 8,19-dioxa-3,4,12,18- tetrazatricyclo [12.3.1.12,5] nonadeca- 1(18),2,4,14,16- pentaen-13-one [Compound 261]”, the EC50 was less than 500 nM. To `Nc1cc(C(F)(F)F)c2nc1-c1nnc(o1)[C@@](O)(C(F)(F)F)CCCCCN(CC1CCCCO1)C2=O` (mixture of isomers) [Compound 130, (6R)-17-amino-6-hydroxy-12-(tetrahydropyran-2-ylmethyl)-6,15-bis (trifluoromethyl)-19-oxa-3,4,12,18-tetrazatricyclo [12.3.1.12,5] nonadeca-1(18),2,4,14,1 6-pentaen-13-one] belongs less than 500 nM; to `Nc1cc(C(F)(F)F)c2nc1-c1nnc(o1)[C@@](O)(C(F)(F)F)CCCCCN(CC1CCCOC1)C2=O` (mixture of isomers) [Compound 131, (6R)-17-Amino-6-hydroxy-12-(tetrahydropyran-3-ylmethyl)-6,15-bis (trifluoromethyl)-19-oxa-3,4,12,18-tetrazatricyclo [12.3.1.12,5] nonadeca-1(18),2,4,14,1 6-pentaen-13-one], less than 500 nM. Regarding `Nc1cc(C(F)(F)F)c2nc1-c1nnc(o1)[C@@](O)(C(F)(F)F)CCCCCN(C1CCCOC1)C2=O` (mixture of isomers) [Compound 133, (6R)-17-Amino-6-hydroxy-12-tetrahydropyran-3-yl-6,15-bis (trifluoromethyl)-19-oxa-3,4,12,18-tetrazatricyclo [12.3.1.12,5] nonadeca-1(18),2,4,14,1 6-pentaen-13-one], the EC50 was less than 500 nM.

For `Nc1cc(C(F)(F)F)c2nc1-c1nnc(o1)C(O)(C(F)(F)F)c1cc(ccc1F)CCCN(C1CC(F)(F)C1)C2=O` (racemic) [Compound 201, 20-amino-15-(3,3-difluorocyclobutyl)-8-fluoro-6-hydroxy-6,18-bis(trifluoromethyl)-23-oxa-3,4,15,21-tetraazatetracyclo [15.3.1.12,5.17,11] tricosa 1(21),2,4,7(22),8,10, 17,19-octaen-16-one], the EC50 was less than 500 nM. `Nc1cc(C(F)(F)F)c2nc1-c1nnc(o1)C(O)(C(F)(F)F)CCCCCCC2` (single isomer, unassigned) [Compound 2, 17-amino-6,15-bis(trifluoromethyl)-19-oxa-3,4,18-triazatricyclo[12.3.1.12,5]nonadeca-1(18),2,4,14,16-pentaen-6-ol]: the EC50 is less than 500 nM. On to `Nc1cc(C(F)(F)F)c2nc1-c1nnc(o1)C(O)(C(F)(F)F)CCCCCc1ccccc1-2` (single isomer, unassigned) [Compound 4, 21-amino-6,19-bis(trifluoromethyl)-23-oxa-3,4,22-triazatetracyclo[16.3.1.12,5.012,17]tricosa-1(22),2,4,12,14,16,18,20-octaen-6-ol], for which the EC50 is less than 500 nM.

As to `Nc1cc(C(F)(F)F)c2nc1-c1nnc(o1)C(O)(C(F)(F)F)CCCCCc1ccccc1-2` (single isomer, unassigned) [Compound 5, 21-amino-6,19-bis(trifluoromethyl)-23-oxa-3,4,22-triazatetracyclo[16.3.1.12,5.012,17]tricosa-1(22),2,4,12,14,16,18,20-octaen-6-ol], the EC50 was more than 1000 nM. As to `Nc1cc(C(F)(F)F)c2nc1-c1nnc(o1)[C@](O)(C(F)(F)F)CCCCCCC2=O` (single isomer, unassigned) [Compound 7], the EC50 is more than 1000 nM. The value for `Nc1cc(C(F)(F)F)c2nc1-c1nnc(o1)C(O)(C(F)(F)F)CCCCCCC2O` (single isomer, unassigned) [Compound 8, 17-amino-6,15-bis(trifluoromethyl)-19-oxa-3,4,18-triazatricyclo[12.3.1.12,5]nonadeca-1(18),2,4,14,16-pentaene-6,13-diol] was less than 500 nM; that for `Nc1cc(C(F)(F)F)c2nc1-c1nnc(o1)C(O)(C(F)(F)F)CCCCCCC2O` (single isomer, unassigned) [Compound 9, 17-amino-6,15-bis(trifluoromethyl)-19-oxa-3,4,18-triazatricyclo[12.3.1.12,5]nonadeca-1(18),2,4,14,16-pentaene-6,13-diol] was more than 1000 nM. To `Nc1cc(C(F)(F)F)c2nc1-c1nnc(o1)C(O)(C(F)(F)F)CCCCCCC2O` (single isomer, unassigned) [Compound 10, 17-amino-6,15-bis(trifluoromethyl)-19-oxa-3,4,18-triazatricyclo[12.3.1.12,5]nonadeca-1(18),2,4,14,16-pentaene-6,13-diol] belongs less than 500 nM; to `Nc1cc(C(F)(F)F)c2nc1-c1nnc(o1)C(O)(C(F)(F)F)CCCCCCC2O` (single isomer, unassigned) [Compound 11, 17-amino-6,15-bis(trifluoromethyl)-19-oxa-3,4,18-triazatricyclo[12.3.1.12,5]nonadeca-1(18),2,4,14,16-pentaene-6,13-diol], more than 1000 nM; to `COC1CCCCCCC(O)(C(F)(F)F)C2=NN=C(O2)c2nc1c(C(F)(F)F)cc2N` (single isomer, unassigned) [Compound 12, 17-Amino-13-methoxy-6,15-bis(trifluoromethyl)-19-oxa-3,4,18-triazatricyclo[12.3.1.12,5]nonadeca-1(18),2,4,14,16-pentaen-6-ol], less than 500 nM. As for `COC1CCCCCCC(O)(C(F)(F)F)C2=NN=C(O2)c2nc1c(C(F)(F)F)cc2N` (single isomer, unassigned) [Compound 13, 17-amino-13-methoxy-6,15-bis(trifluoromethyl)-19-oxa-3,4,18-triazatricyclo[12.3.1.12,5]nonadeca-1(18),2,4,14,16-pentaen-6-ol], the EC50 was less than 500 nM. Turning to `COC1CCCCCCC(O)(C(F)(F)F)C2=NN=C(O2)c2nc1c(C(F)(F)F)cc2N` (single isomer, unassigned) [Compound 14, 17-Amino-13-methoxy-6,15-bis(trifluoromethyl)-19-oxa-3,4,18-triazatricyclo[12.3.1.12,5]nonadeca-1(18),2,4,14,16-pentaen-6-ol], the EC50 is less than 500 nM. `COC1CCCCCCC(O)(C(F)(F)F)C2=NN=C(O2)c2nc1c(C(F)(F)F)cc2N` (single isomer, unassigned) [Compound 15, 17-amino-13-methoxy-6,15-bis(trifluoromethyl)-19-oxa-3,4,18-triazatricyclo[12.3.1.12,5]nonadeca-1(18),2,4,14,16-pentaen-6-ol]: the EC50 was 500 to 1000 nM. For the compound `CC1CCCCCCC(O)(C(F)(F)F)C2=NN=C(O2)c2nc1c(C(F)(F)F)cc2N` (single isomer, unassigned) [Compound 16, 17-Amino-13-methyl-6,15-bis(trifluoromethyl)-19-oxa-3,4,18-triazatricyclo[12.3.1.12,5]nonadeca-1(18),2,4,14,16-pentaen-6-ol], the EC50 was less than 500 nM. `CC1CCCCCCC(O)(C(F)(F)F)C2=NN=C(O2)c2nc1c(C(F)(F)F)cc2N` (single isomer, unassigned) [Compound 17, 17-amino-13-methyl-6,15-bis(trifluoromethyl)-19-oxa-3,4,18-triazatricyclo[12.3.1.12,5]nonadeca-1(18),2,4,14,16-pentaen-6-ol]: the EC50 was less than 500 nM.

For `CC1CCCCCCC(O)(C(F)(F)F)C2=NN=C(O2)c2nc1c(C(F)(F)F)cc2N` (single isomer, unassigned) [Compound 18, 17-amino-13-methyl-6,15-bis(trifluoromethyl)-19-oxa-3,4,18-triazatricyclo[12.3.1.12,5]nonadeca-1(18),2,4,14,16-pentaen-6-ol], the EC50 is less than 500 nM.

The record behind these values is US20250122218A1, “MODULATORS OF CYSTIC FIBROSIS TRANSMEMBRANE CONDUCTANCE REGULATOR” (Vertex Pharmaceuticals Incorporated, priority 2022, published 2025).
